Results on 18 compounds are retold here after patent publication US20260216180A1, “QUINOLINE DERIVATIVE COMPOUNDS OR PHARMACEUTICALLY ACCEPTABLE SALT THEREOF, PREPARATION METHOD THEREFOR AND USE THEREOF” (JIANGSU CAREPHAR PHARMACEUTICAL CO.,LTD., priority 2023, published 2026).

Common to all, as to format: cell-based
One experiment has as its system TNF-α. Kind of experiment: Macrophage TNF-α secretion after LPS (ELISA). Particulars: Bone marrow macrophage, compared to 0 μM, mouse bone marrow macrophages, 200 ng/ml LPS, 6 hours, read-out: Inhibition rate of TNFα at 10 μM concentration. The protocol:
(§1) Pharmacological Activity Test: Regulatory Effect of Quinoline Derivatives on Macrophage IL-6 and TNF-α Secretion
(§2) Mouse bone marrow cells were isolated from the femur and tibia bone marrow of […] mice of 6-8 week old raised under SPF conditions and inoculated in 6-well plates at a density of 1.5*10^6 cells/well/2 mL. 50 ng/mL M-CSF was added to each well and the cells were cultured in a CO2 incubator for 3 days. On the third day, the culture medium was replaced with fresh medium containing 100 ng/mL M-CSF and the culture was continued for 3 days. On the 6th day, the supernatant was removed and the cells were washed once with DPBS. After adding 1 mL of DPBS, the macrophages were harvested using a cell scraper, centrifuged at 400 g for 10 min, and the supernatant was discarded. The cells were resuspended in fresh culture medium containing 50 ng/mL M-CSF, inoculated in a 96-well plate at a density of 2*10^4 cells/well/200 μL, and cultured in a CO2 incubator overnight. 0, 3, 5, […] of the test compound were added to each well (wherein well 0 contains 0.1% DMSO) respectively and incubate in a CO2 incubator for 1 hour. Then 200 ng/ml LPS was added and the cell supernatant was collected after 6 hours of co-culture. ELISA kits were used to detect the secretion levels of IL-6 and TNF-α.

The next experiment has as its system miR-124. Kind of experiment: Regulation of miR-124 expression in a PBMC in vitro model (qPCR). Particulars: 5 μM test compound, 24 h, human PBMC stimulated with PHA-L and IL-2; miR-191 internal reference; read-out: Relative expression of miR-124, fold change compared with DMSO-treated cells. The protocol: Pharmacological Activity Test: Regulation of miR-124 Expression by the Quinoline Derivatives in a PBMC In Vitro Model
• a. human PBMC cells • b. PHA-L • c. IL-2 • d. mirVana™ miRNA Extraction kit • e. TaqMan Advanced miRNA cDNA Synthesis Kit • f. TaqMan Fast Gene Expression Master Mix • g. TaqMan Advanced miRNA Assay (mir191) • h. TaqMan Advanced miRNA Assay (mir124)
Human PBMC cells were resuscitated. The cell suspension was transferred to a 75 cm^2 culture flask containing 13 mL of culture medium. The cells were cultured overnight in a 37° C., 5% CO2 incubator. The cell suspension was then collected in a conical flask, centrifuged at 1200 rpm for 5 minutes, and the supernatant was discarded. The cells were resuspended in 1 mL of fresh culture medium, and then the cell clumps were gently blown apart and inoculated into a 6-well plate at a density of 4*10^6 cells/mL. 5 μg/mL PHA-L and 10 ng/mL IL-2 were added to each well. The cells were incubated in the incubator for 48 hours. 5 μM of the test compound was added to each well of a 6-well plate, and 0.1% DMSO was added to the blank control wells, and the plate was incubated at 37° C. for 24 h. Cells were collected, Total RNA was isolated and extracted according to the procedure of the mirVana™ miRNA Extraction Kit, and cDNA was prepared according to the procedure of the TaqMan Advanced miRNA cDNA Synthesis Kit. MiR-191 was used as the internal reference gene for qPCR test.
That is, RNA sample→poly (A) tailing reaction→adapter reaction→reverse transcription (RT) reaction→miR-amplification reaction→qPCR test.
The qPCR procedure includes: 50° C. 2 min; 95° C. 20 s; 95° C. 1 s, a 60° C. 20 s, 40 cycles.
The relative gene expression was calculated using the following formula: ΔCt=Ct (miR-124)−Ct (miR-191)
Relative miRNA expression=2^−ΔCt.

The test system of a further experiment is IL-6. The experiment in a line: Macrophage IL-6 secretion after LPS (ELISA). The note with it: Bone marrow macrophage, compared to 0 μM, mouse bone marrow macrophages, 200 ng/ml LPS, 6 hours, read-out: Inhibition rate of IL-6 at 10 μM concentration. The protocol:
as §1, §2

Take `FC(F)C1(c2ccc(Nc3ccc4cccc(Cl)c4n3)cc2)CC1` [Compound 1, 8-chloro-N-(4-(1-(difluoromethyl)cyclopropyl)phenyl)quinolin-2-amine]: the values for the inhibition at 10 µM with TNF-α and in the experiment with IL-6 were 85% and 81%, respectively. In addition, the fold induction at 5 µM with miR-124 turned out to be 1.5.
Turning to `FC(F)(F)C1(c2ccc(Nc3ccc4cccc(Cl)c4n3)nc2)CC1` [Compound 2, 8-chloro-N-(5-(1-(trifluoromethyl)cyclopropyl)pyridin-2-yl)quinolin-2-amine], the fold induction at 5 µM with miR-124 stood at 8.35.
On the same count and under the same terms, the same measure for `CC(C)(c1ccc(Nc2ccc3cccc(Cl)c3n2)cc1)C(F)(F)F` [Compound 3, 8-chloro-N-(4-(1,1,1-trifluoro-2-methylprop-2-yl)phenyl)quinolin-2-amine]: 7.33.
Regarding `FC(F)(F)C1(c2ccc(Nc3ccc4cccc(Cl)c4n3)cc2)CC1` [Compound 4, 8-chloro-N-(4-(1-(trifluoromethyl)cyclopropyl)phenyl)quinolin-2-amine], the figures for the inhibition at 10 µM in the experiment on TNF-α and in the experiment on IL-6 were 84% and 85%, respectively. In addition, the fold induction at 5 µM in the experiment on miR-124 turned out to be 15.9.
Regarding `FC(F)(F)C1(c2ccnc(Nc3ccc4cccc(Cl)c4n3)c2)CC1` [Compound 6, 8-chloro-N-(4-(1-(trifluoromethyl)cyclopropyl)pyridin-2-yl)quinolin-2-amine], the fold induction at 5 µM in the experiment on miR-124 worked out at 7.28.
Same read-out and setting: the same measure for `FC(F)(F)C1(c2ccc(Nc3ccc4cccc(Cl)c4n3)cn2)CC1` [Compound 7, 8-chloro-N-(6-(1-(trifluoromethyl)cyclopropyl)pyridine-3-yl)quinolin-2-amine]: 1.8.
On the same count and under the same terms, the same measure for `COc1cc(C2(C(F)(F)F)CC2)ccc1Nc1ccc2cccc(Cl)c2n1` [Compound 8, 8-chloro-N-(2-methoxy-4-(1-(trifluoromethyl)cyclopropyl)phenyl)quinolin-2-amine]: 6.
Still for that read-out and setting: the same measure for `FC(F)(F)C1(c2cccc(Nc3ccc4cccc(Cl)c4n3)c2)CC1` [Compound 9, 8-chloro-N-(3-(1-(trifluoromethyl)cyclopropyl)phenyl)quinolin-2-amine]: 4.24; for `Fc1cc(Cl)c2nc(Nc3ccc(C4(C(F)(F)F)CC4)cn3)ccc2c1` [Compound 10, 8-chloro-6-fluoro-N-(5-(1-(trifluoromethyl)cyclopropyl)pyridin-2-yl)quinolin-2-amine]: 6.9; for `Cc1cc(Nc2ccc3cccc(Cl)c3n2)ncc1C1(C(F)(F)F)CC1` [Compound 13, 8-chloro-N-(4-methyl-5-(1-(trifluoromethyl)cyclopropyl)pyridin-2-yl)quinolin-2-amine]: 5.9.
Consider `FC(F)(F)C1(c2cnc(Nc3ccc4cccc(Cl)c4n3)cn2)CC1` [Compound 14, 8-chloro-N-(5-(1-(trifluoromethyl)cyclopropyl)Pyrazin-2-yl)quinolin-2-amine], for which, in the experiment with miR-124, the fold induction at 5 µM was 8.1.
Take `Fc1cc(Nc2ccc3cccc(Cl)c3n2)ncc1C1(C(F)(F)F)CC1` [Compound 15, 8-chloro-N-(4-fluoro-5-(1-(trifluoromethyl)cyclopropyl)pyridin-2-yl)quinolin-2-amine]: the fold induction at 5 µM with miR-124 stood at 1.99.
As for `Fc1cc(Cl)c2nc(Nc3cc(C4(C(F)(F)F)CC4)ccn3)ccc2c1` [Compound 17, 8-chloro-6-fluoro-N-(4-(1-(trifluoromethyl)cyclopropyl)pyridin-2-yl)quinolin-2-amine], the fold induction at 5 µM with miR-124 came out at 56.4.
On the same count and under the same terms, the same measure for `N#Cc1cc(Cl)c2nc(Nc3ccc(C4(C(F)(F)F)CC4)cn3)ccc2c1` [Compound 19, 8-chloro-2-((5-(1-(trifluoromethyl)cyclopropyl)pyridin-2-yl)amino)quinolin-6-nitrile]: 118; for `N#Cc1cc(Cl)c2nc(Nc3ccc(C4(C(F)(F)F)CC4)cc3)ccc2c1` [Compound 20, 8-chloro-2-((4-(1-(trifluoromethyl)cyclopropyl)phenyl)amino)quinolin-6-carbonitrile]: 15.2; for `CS(=O)(=O)c1cc(Cl)c2nc(Nc3ccc(C4(C(F)(F)F)CC4)cc3)ccc2c1` [Compound 21]: 21.2.
On the same count and under the same terms, the same measure for `CC(C)(c1ccc(Nc2ccc3cccc(Cl)c3n2)cc1)C(F)F` [Compound 22, 8-chloro-N-(4-(1,1-difluoro-2-methylpropan-2-yl)phenyl)quinolin-2-amine]: 1.96; for `FC(F)(F)C1(c2cnc(Nc3ccc4cccc(Cl)c4n3)nc2)CC1` [Compound 24, 8-chloro-N-(5-(1-(trifluoromethyl)cyclopropyl)pyrimidin-2-yl)quinolin-2-amine]: 1.99.
